Measurements reported in patent US20230310540A1, “PEPTIDE COMPOSITIONS AND METHODS OF USE THEREOF” (priority 2020, published 2023).
Converted amounts (≈) assume the structure as drawn. Like-named read-outs stand apart in the source and are kept apart here.

How the values were obtained:
[1] = tested on: Klebsiella pneumoniae clinical isolates
[2] = tested on: Acinetobacter baumannii (PDR); assay: Broth dilution MIC against pan drug-resistant A. baumannii isolate; assay type: cell-based; details: isolate AB (PDR)
[3] = tested on: Methicillin-resistant Staphylococcus aureus (SAP400); assay: Broth dilution MIC against MRSA isolate; assay type: cell-based
[4] = tested on: Pseudomonas aeruginosa (CF mucoid and non-mucoid); assay: Broth dilution MIC against P. aeruginosa isolates from cystic fibrosis patients; assay type: cell-based
[5] = isolate KP (Morici), ATCC #33495

Compound	MIC ([1]; isolate KP 2146 (NDM-1))	MIC ([1]; isolate KP (6))	MIC ([1]; isolate KP (46))	MIC ([1]; isolate KP (398))	MIC ([1]; isolate KP (CRE))	MIC [1, 5]	MIC ([1]; isolate KP (ST258C3))	MIC ([1]; isolate KP (ST258I2))	MIC ([1]; isolate KP (ST396))	MIC ([1]; isolate KP (St258 C2))	MIC [2]	MIC [3]	MIC ([4]; isolate PA (mucoid))	MIC ([4]; isolate PA (non-mucoid))
CC(C)(O/N=C(\C(=O)N[C@@H]1C(=O)N2C(C(=O)[O-])=C(C[n+]3ccccc3)CS[C@H]12)c1csc(N)n1)C(=O)O [CAZ, Ceftazidime]	>150 µM	>150 µM	>150 µM	132.7 µM (≈ 72.5 µg/mL)	>150 µM	>150 µM	>150 µM	>150 µM	>150 µM	>150 µM	>150 µM	>150 µM	115.9 µM (≈ 63.3 µg/mL)	>150 µM
CO/N=C(\C(=O)N[C@@H]1C(=O)N2C(C(=O)O)=C(CSc3nc(=O)c(O)nn3C)CS[C@H]12)c1csc(N)n1 [CRO, Ceftriaxone]	>150 µM	>150 µM	1.9 µM (≈ 1.05 µg/mL)	0.2 µM (≈ 0.111 µg/mL)	45 µM (≈ 25 µg/mL)	0.3 µM (≈ 0.166 µg/mL)	>150 µM	>150 µM	1.9 µM (≈ 1.05 µg/mL)	>150 µM	>150 µM	>150 µM	137.2 µM (≈ 76.1 µg/mL)	88.45 µM (≈ 49.1 µg/mL)
C[C@@H](O)[C@H]1C(=O)N2C(C(=O)O)=C(S[C@@H]3CN[C@H](C(=O)N(C)C)C3)[C@H](C)[C@H]12 [MEM, Meropenem]	>150 µM	0.2 µM (≈ 0.0767 µg/mL)	0.4 µM (≈ 0.153 µg/mL)	0.2 µM (≈ 0.0767 µg/mL)	108.3 µM (≈ 41.5 µg/mL)	0.2 µM (≈ 0.0767 µg/mL)	>150 µM	>150 µM	0.3 µM (≈ 0.115 µg/mL)	>150 µM	>150 µM	>150 µM	13.3 µM (≈ 5.1 µg/mL)	4 µM (≈ 1.53 µg/mL)
Gentamicin	>150 µM	>150 µM	1.6 µM	1.9 µM	5.2 µM	1.9 µM	>150 µM	8.3 µM	2 µM	>150 µM	>150 µM	>150 µM	5.5 µM	8.3 µM
